Reference: US8987193B2, “Nisin derivatives and the use thereof” (University College Cork—National University of Ireland, Cork, priority 2008, dated 2015)
Ends that are not written are not given here.

Columns and labels:
L. lactis CBC7 = experiment: Deferred antagonism assay; assay type: cell-based; design: key: + = Enhanced bioactivity relative to control; − = Bioactivity equal to or less than control; NA = no activity evident; details: producing strain
Method in brief: (§1)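 Producer strains replicated on GM17 or GM17 x-gal agar, grown overnight, then overlaid with 0.75% agar seeded with indicator strain. Zone size = diameter of clearing minus 5 mm growth diameter. Purified nisins tested by well diffusion at 37° C overnight; activity in AU/ml from reciprocal of highest active dilution × 20.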

S. aureus CBC4 = experiment: Deferred antagonism assay; assay type: cell-based; design: key: + = Enhanced bioactivity relative to control; − = Bioactivity equal to or less than control; NA = no activity evident; details: producing strain
Method in brief: as §1

L. lactis CBC8 = experiment: Deferred antagonism assay; assay type: cell-based; design: key: + = Enhanced bioactivity relative to control; − = Bioactivity equal to or less than control; NA = no activity evident; details: producing strain
Method in brief: as §1

C. sporogenes CBC5 = experiment: Deferred antagonism assay; assay type: cell-based, Clostridium sporogenes; design: key: + = Enhanced bioactivity relative to control; − = Bioactivity equal to or less than control; NA = no activity evident; details: producing strain
L. plantarum CBC6 = experiment: Deferred antagonism assay; assay type: cell-based, Lactobacillus plantarum; design: key: + = Enhanced bioactivity relative to control; − = Bioactivity equal to or less than control; NA = no activity evident; details: producing strain
Method in brief: as §1

L. monocytogenes CBC3 = experiment: Deferred antagonism assay; assay type: cell-based, Listeria monocytogenes; design: key: + = Enhanced bioactivity relative to control; − = Bioactivity equal to or less than control; NA = no activity evident; details: producing strain; L. mono CBC3
Method in brief: as §1

L. monocytogenes CBC2 = experiment: Deferred antagonism assay; assay type: cell-based, Listeria monocytogenes; design: key: + = Enhanced bioactivity relative to control; − = Bioactivity equal to or less than control; NA = no activity evident; details: producing strain; L. mono CBC2
Method in brief: as §1

L. monocytogenes CBC1 = experiment: Deferred antagonism assay; assay type: cell-based, Listeria monocytogenes; design: key: + = Enhanced bioactivity relative to control; − = Bioactivity equal to or less than control; NA = no activity evident; details: producing strain; L. mono CBC1
Method in brief: as §1

[1] = system: Staph. aureus ST528 (MRSA); experiment: Deferred antagonism assay; assay type: cell-based; details: producing strain, diameter of zone minus diameter of bacterial growth (5 mm), average of duplicates
Experimental: (§2) Deferred antagonism assays were performed by replicating strains on GM17 or GM17 x-gal agar plates and allowing them to grow overnight before overlaying with either GM17/BHI/TS/MH agar (0.75% w/v agar) seeded with the appropriate indicator strain. Zone size was calculated as the diameter of the zone of clearing minus the diameter of bacterial growth (5 mm) For higher throughput screening of N20PXX, XM21VX, XXK22T and XXX banks deferred antagonism assays were performed by replicating strains using a 96 pin replicator (Boekel) or spotting 5 μl of a fresh overnight culture on GM17 agar plates and allowing them to grow overnight. […] Additional sets of indicators were employed to further assess/reassess the bioactivity of a number of strains. […] For well-diffusion assays molten agar was cooled to 48° C. and seeded with the appropriate indicator strain. The inoculated medium was rapidly transferred into sterile Petri plates in 50 ml volumes, allowed to solidify and dried. Wells (4.6 mm in diameter) were then made in the seeded plates. Purified nisin and mutant nisins were resuspended in 0.005% acetic acid, serially diluted, 50 μl volumes were dispensed into the aforementioned wells and the plates incubated at 37° C. overnight. Bioactivity was expressed as arbitrary units/ml (AU/ml) and calculated as the reciprocal of the highest dilution that gave a definite zone multiplied by the conversion factor (i.e. 20 when 50 μl was used) (Ryan et al., 1996).
(§3) As a consequence of the enhanced activities of K22T and K22S, a more in-depth investigation of this region was carried out. Saturation mutagenesis was undertaken to create a bank of nisin A hinge derivatives containing the vast majority of possible amino acid substitutions for each position. Although pPTPL was used successfully for random mutagenesis, its relatively large size of approx 10.5 kb was considered unsuitable for the complete plasmid PCR amplification approach utilized for saturation mutagenesis. A smaller (approx 6 kb) E. coli-L. lactis shuttle vector pCI372 was considered to be potentially more useful. Its suitability with respect to the in trans expression of nisA was confirmed by the ability of pDFO5 to restore the nisin positive phenotype. Saturation mutagenesis was performed on each codon using pDF05 and oligonucleotides (Table 5) that replace the specific codon with a NNK triplet, potentially encoding all 20 standard amino acids. Following complete plasmid amplification and introduction into the intermediate Top10 host, sequence analysis of a pooled bank of pDF05 derivatives confirmed randomization. Introduction of these variants into L. lactis NZ9800 allowed the expression of mutant nisin A peptides for further analysis. […] 46 residue conversions were isolated. All strains, regardless of bioactivity, were assessed with a view to comprehensively assessing the consequences of each individual hinge alteration.
(§4) Values are an average of duplicate experiments and represent zone size (diameter of zone minus diameter of bacterial growth (i.e. 5 mm) relative to that of the NZ9800 pCI372nisA control. X=Mutants not identified.

Staph. aureus DPC5245 = experiment: Deferred antagonism assay; assay type: cell-based; details: producing strain; diameter of zone minus 5 mm; average of duplicates; St. aureus DPC5245
Experimental: as §2, §3, §4

[2] = system: Strep. agalactiae ATCC13813; experiment: Deferred antagonism assay; assay type: cell-based; details: producing strain, diameter of zone minus 5 mm, average of duplicates
Experimental: as §2, §3, §4

indicator strains = experiment: Deferred antagonism assays, various indicator strains (summary); assay type: cell-based; details: for bioactivity of the producing strain, in words: in general / against the strains tested; for Strain(s) against which the derivative (producing strain) displays enhanced bioactivity: relative to nisin A-producing control, value = strains listed
Method in brief: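 Producer strains were replicated on GM17 or GM17 x-gal agar, grown overnight, then overlaid with GM17, BHI, TS or MH soft agar (0.75% w/v) seeded with the indicator strain. Zone size was taken as the clearing diameter minus the diameter of bacterial growth (5 mm).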

| Substance | Bioactivity relative to control (L. lactis CBC7) | Bioactivity relative to control (S. aureus CBC4) | Bioactivity relative to control (L. lactis CBC8) | Bioactivity relative to control (C. sporogenes CBC5) | Bioactivity relative to control (L. plantarum CBC6) | Bioactivity relative to control (L. monocytogenes CBC3) | Bioactivity relative to control (L. monocytogenes CBC2) | Bioactivity relative to control (L. monocytogenes CBC1) | zone size relative to that of the NZ9800 pCI372nisA control [1] | zone size relative to that of the NZ9800 pCI372nisA control (Staph. aureus DPC5245) | zone size relative to that of the NZ9800 pCI372nisA control [2] | bioactivity of the producing strain, in words (indicator strains) | Strain(s) against which the derivative (producing strain) displays enhanced bioactivity (indicator strains) |
| --- | --- | --- | --- | --- | --- | --- | --- | --- | --- | --- | --- | --- | --- |
| NisinA K22Q (ITSISLCTPGCKTGALMGCNMQTATCHCSIHVSK; not fully specified; also: lantibiotic nisin: dehydrated residues and thioether rings not placed; UniProt P13068 24-57, looked up, variant K22Q) [nisin A derivative, hinge substitution K22Q] | − | − | + | − | − | − | − | − | 82% | 77% | 82% | slightly diminished bioactivity | L. lactis CBC8 |
| NisinA N20A | − | − | − | + | − | − | − | − | 60.5% | 69% | 52% |  | C. sporogenes CBC5 |
| N20L: nisin A derivative, hinge substitution N20L (ITSISLCTPGCKTGALMGCLMKTATCHCSIHVSK; cysteine pairing not given here; also: lantibiotic nisin-A; UniProt P13068 24-57, looked up, variant N20L) | − | − | − | − | − | − | − | − | 43% | 69.5% | 69% | retention of relatively high levels of bioactivity |  |
| NisinA M21N | − | − | + | − | − | − | − | − | 95% | 90% | 98% | approximately wild type bioactivity | L. lactis CBC8 |
